Experimental data from patent publication US11730742B2, “Pharmaceutical use of thiophene [3,2-d] pyrimidine-4-ketone compound” (SHANGHAI INSTITUTE OF MATERIA MEDICA, CHINESE ACADEMY OF …, priority 2018, dated 2023).
Entries after “also recorded” stand apart in the source; their conditions may differ.

Assays:
[1] = test system: Human hepatic stellate cell line LX-2; assay: Inhibition of TGF-β-induced hepatic stellate cell activation (α-SMA, fibronectin by Western Blot); format: cell-based; conditions: LX-2, 10 ng/mL TGF-β plus compound for 24 hours; for inhibition of the activation of hepatic stellate cells HSC: α-SMA and fibronectin by Western Blot
Description: Human hepatic stellate cell line LX-2 was used in cell function experiments. […] By comparing the expression levels of extracellular matrix in the TGF-β group and the cell group in which TGF-β and the compound to be tested were both added at the same time, the efficacy of the compound in alleviating liver fibrosis through hepatic stellate cells was characterized.
The cell experiment procedure was as follows. The human hepatic stellate cell line LX-2 was selected and inoculated into the treated 24-well plate at 7.5×10^4/well. After the cells were adhered overnight and they were subjected to starvation treatment for 12 hours, the cells were treated with 10 ng/mL TGF-β and the corresponding test compound for 24 hours and then protein samples were collected. The expression of extracellular matrix represented by α-smooth muscle myofilament (α-SMA) and fibronectin was detected by Western Blot.

[2] = test system: CCl4 induced liver fibrosis model mice; assay: CCl4 induced liver fibrosis model mice, long-term oral administration (Example 4); format: in vivo; conditions: for serum ALT level / serum AST level: 20 and 60 mg/kg oral gavage twice a day
Protocol: In this experiment, CCl4 induced liver fibrosis model mice were used to investigate the effect of long-term oral administration of compound DC291407 on liver fibrosis in the model mice.
Animal experiment: Male C57BL/6j mice were injected intraperitoneally with 2 mL/kg, 10% CCl4 (dissolved in olive oil) three times a week to induce liver fibrosis model. Two weeks after modeling, the blood was taken from the retro-ocular venous plexus of the mice, and serum ALT and AST indexes were detected. According to ALT, AST, body weight and other indexes, the mice were randomly divided into 5 groups, each with 10 mice. There were the model control group (vehicle), DC291407 low-dose group (20 mg/kg), DC291407 high-dose group (60 mg/kg), positive compound OCA low-dose group (20 mg/kg), OCA high-dose group (40 mg/kg), respectively, and mice were administered by oral gavage. DC291407 was administered twice a day, and the other groups were administered once a day. During the administration period, the animals' food intake and body weight were monitored. After 3 weeks of administration, the blood was taken from the retro-ocular venous plexus of the mice, and serum ALT and AST indexes were detected. After 6 weeks of administration, the blood was taken from the retro-ocular venous plexus of the mice and then the mice were killed by dislocation. The liver was taken and weighed, part of the liver was fixed with 4% paraformaldehyde, and part of the liver was frozen at −80° C. During the whole experiment, another 10 mice in the same cage were injected intraperitoneally with the same dose of olive oil as a normal control group (WT). This experiment reflected whether the compound had the effect of relieving liver fibrosis by detecting the levels of liver function indexes ALT and AST in serum, the expression of α-SMA and Col1α1 gene levels in the liver, the content of hydroxyproline (a characteristic amino acid of collagen) in the liver, and liver pathological changes (Sirius scarlet staining) and the like.

[3] = test system: NAFLD model of ob/ob mice induced by high-fat diet; assay: NAFLD model of ob/ob mice induced by high-fat diet (Example 5); format: in vivo; conditions: 8 weeks
Protocol: In this experiment, the NAFLD model of ob/ob mice induced by high-fat diet was used to investigate the treatment effect of long-term oral administration of compound DC291407 on NAFLD.
Animal experiment: ob/ob obese mice were divided into 3 groups according to random blood glucose, random body weight, fasting blood glucose, and fasting body weight at the 8th week of age, with 9 mice in each group. There were the model control group (vehicle) and the DC291407 group (20 mg/kg), the positive compound Alogliptin group (20 mg/kg), respectively and mice were administered by oral gavage, twice a day. A group of 6 normal mice in the same cage was set up as a normal control group (WT). Except for the WT group, they were fed with normal feed, and the rest groups were fed with high-fat feed. The administration was continued for 8 weeks. During the administration, the animal's food intake and body weight were monitored. After the last administration, the animals were fasted for 6 hours and allowed to drink water freely. Then the body weight was measured, the blood was collected from the retro-ocular venous plexus, and liver was dissected. Part of the liver was placed in 4% paraformaldehyde, and the rest was stored in a refrigerator at −80° C. This experiment reflected whether the compound had the treating effect on NAFLD by detecting the levels of liver function indexes ALT and AST in the serum, the contents of TC and TG in the liver, the NAS score of liver pathology (HE staining) and the like.

[4] = test system: CCl4-induced liver fibrosis model mice; assay: CCl4-induced liver fibrosis model mice, multiple doses, comparison with sitagliptin (Example 6); format: in vivo; conditions: oral gavage twice a day, 6 weeks
Protocol: In this experiment, CCl4-induced liver fibrosis model mice were used to investigate the effect of long-term oral administration of compound DC291407 under multiple doses on liver fibrosis in the model mice, and comparison was conducted with the same dose of sitagliptin.
Animal experiment: Male C57BL/6j mice were injected intraperitoneally with 2 mL/kg, 10% CCl4 (dissolved in olive oil) three times a week to induce liver fibrosis model. Two weeks after modeling, the blood was taken from the retro-ocular venous plexus of the mice, and serum ALT and AST indexes were detected. According to ALT, AST, body weight and other indexes, the mice were randomly divided into 8 groups with 10 mice in each group. There were the models control group (vehicle), DC291407 low-dose group (6 mg/kg), DC291407 middle-dose group (20 mg/kg), DC291407 high-dose group (60 mg/kg), sitagliptin low-dose group (6 mg/kg), Sitagliptin middle-dose group (20 mg/kg), sitagliptin high-dose group (60 mg/kg) and system positive compound OCA group (20 mg/kg). The mice were administered by oral gavage. The OCA group was administered once a day, and the other groups were administered twice a day. During the administration period, the animals' food intake and body weight were monitored. After 3 weeks of administration, the blood was taken from the retro-ocular venous plexus of the mice, and serum ALT and AST indexes were detected. After 6 weeks of administration, the blood was taken from the retro-ocular venous plexus of the mice and then the mice were killed by dislocation. The liver was taken and weighed, part of the liver was fixed with 4% paraformaldehyde, and part of the liver was frozen at −80° C. During the whole experiment, another 10 mice in the same cage were injected intraperitoneally with the same dose of olive oil as a normal control group (WT). This experiment reflected whether the compound had the effect of relieving liver fibrosis by detecting the levels of liver function indexes ALT and AST in serum, the content of hydroxyproline (a characteristic amino acid of collagen) in the liver, and liver pathological changes (Sirius scarlet staining) and the like.

[5] = after 3 weeks of administration
[6] = after 6 weeks of administration
[7] = 20 mg/kg oral gavage twice a day

COC(=O)c1cc2nc(N3CCC[C@@H](N)C3)n(Cc3ccccc3C#N)c(=O)c2s1 [DC291407, (R)-methyl-2-(3-aminopiperidin-1-yl)-3-(2-cyanobenzyl)-4-carbonyl-3,4-dihydrothieno[3,2-d]pyrimidine-6 carboxylic acid]
inhibitory activity on HSC activation compared with positive control Alogliptin [1]: better than that of the positive control Alogliptin
inhibition of the activation of hepatic stellate cells HSC [1]: concentration-dependently inhibited; also recorded: had an inhibitory effect
serum ALT level [2, 5]: no decrease
serum AST level [2, 5]: no decrease
collagen content in the liver (Sirius scarlet stained pathological sections, quantitative analysis) [2, 6]: reduce the collagen content in the liver without statistical difference
content of hydroxyproline in liver tissues [2, 6]: reduced
expression of Col1α1 mRNA in liver tissues [2, 6]: significantly down-regulated
expression of α-SMA mRNA in liver tissues [2, 6]: significantly down-regulated
serum ALT level [2, 6]: significantly reduced
serum AST level [2, 6]: significantly reduced
effect on serum ALT, AST and liver TG compared with alogliptin ([3]; 20 mg/kg each, twice a day): equivalent to that of alogliptin
effect on steatosis compared with alogliptin ([3]; 20 mg/kg each, twice a day): better than that of alogliptin
overall improvement effect on NAS score compared with alogliptin ([3]; 20 mg/kg each, twice a day): equivalent to that of alogliptin
content of TG in liver tissue [3, 7]: significantly reduce
level of ALT in serum [3, 7]: significantly reduce
level of AST in serum [3, 7]: significantly reduce
lobular inflammation (NAS score, HE stained liver sections) [3, 7]: a certain alleviating effect
steatosis (NAS score, HE stained liver sections) [3, 7]: improve steatosis
ALT level in serum ([4]; high-dose group 60 mg/kg): significantly reduce
collagen content in the liver (Sirius scarlet stained sections, quantitative analysis) ([4]; high-dose group 60 mg/kg): reduce the collagen content in the liver without dose dependence
ALT level in serum ([4]; low-dose group 6 mg/kg): significantly reduce
AST level in serum ([4]; low-dose group 6 mg/kg): significantly reduce
collagen content in the liver (Sirius scarlet stained sections, quantitative analysis) ([4]; low-dose group 6 mg/kg): reduce the collagen content in the liver without dose dependence
content of hydroxyproline in liver tissues ([4]; low-dose group 6 mg/kg): reduced the content of hydroxyproline in liver tissues without statistics significance
ALT level in serum ([4]; middle-dose group 20 mg/kg): significantly reduce
AST level in serum ([4]; middle-dose group 20 mg/kg): significantly reduce
collagen content in the liver (Sirius scarlet stained sections, quantitative analysis) ([4]; middle-dose group 20 mg/kg): reduce the collagen content in the liver without dose dependence

N#Cc1ccccc1Cn1c(N2CCC[C@@H](N)C2)nc2cc(C(=O)O)sc2c1=O [DC291410, (R)-2-(3-aminopiperidin-1-yl)-3-(2-cyanobenzyl)-4-carbonyl-3,4-dihydrothieno[3,2-d]pyrimidine-6 carboxylic acid]
inhibitory activity on HSC activation compared with positive control Alogliptin [1]: better than that of the positive control Alogliptin
inhibition of the activation of hepatic stellate cells HSC [1]: concentration-dependently inhibited

N[C@@H](CC(=O)N1CCn2c(nnc2C(F)(F)F)C1)Cc1cc(F)c(F)cc1F [sitagliptin, reference compound]
ALT level in serum ([4]; high-dose group 60 mg/kg): significantly reduced
AST level in serum ([4]; high-dose group 60 mg/kg): significantly reduced
ALT level in serum ([4]; low-dose group 6 mg/kg): no effect
AST level in serum ([4]; low-dose group 6 mg/kg): no effect
collagen content in the liver (Sirius scarlet stained sections, quantitative analysis) ([4]; low-dose group 6 mg/kg): significantly reduce the collagen content in the liver
AST level in serum ([4]; middle-dose group 20 mg/kg): significantly reduced
